Results from patent US20060058286A1, “Methods of treating HIV infection” (priority 2004, published 2006).

Experiments:
[1] = test system: HIV-1 NL4-3; assay: Two-drug combination study with Compound 1 (combination indices); type: cell-based; conditions: for Combination Indices at 50% HIV Inhibition (Confidence Interval) / Combination Indices at 75% HIV Inhibition (Confidence Interval) / Combination Indices at 90% HIV Inhibition (Confidence Interval): 95% CI in parentheses; for Overall Result: overall antiviral effect of the two-drug combination with Compound 1, all ratios and effective levels
Protocol: (§1) Virus and cell lines. The T-cell line, MT-2 was obtained through the AIDS Research and Reference Reagent Program, NIAID and was contributed by Dr. D. Richman. The cell line was cultured in RPMI 1640 medium supplemented with 10% fetal bovine serum, 2 mM L-glutamine and sub-cultured twice a week. The NL4-3 strain of HIV-1 was obtained from the AIDS Research and Reference Reagent Program. Both virus stocks were amplified and titered in MT-2 cells using a virus infectivity assay.
(§2) Drug Susceptibility and Cytotoxicity Assays. For drug susceptibility assays, MT-2 cells were infected with HIV-1 NL4-3 at an MOI of 0.001, and seeded into 96-well microtiter plates (2.5×10^5 cells/ml) containing serial dilutions of test compounds. […] Each drug ratio consisted of an array of 3-fold serial dilutions, and was performed in quadruplicate. The plates were incubated at 37° C./5% CO2. The MT-2 cells infected with HIV-1 NL4-3 were incubated for 5 days. On day-five post-infection, 20 μl from each well was harvested and quantitated by a reverse transcriptase (RT) assay or an MTS assay. Cytotoxicity assays were performed using uninfected cells, exposed to the same drug combinations, and incubated for five days. Cell viability was determined by an XTT assay. The CC50 values were calculated by using the exponential form of the median effect equation as mentioned below for calculation of EC50.
Analysis of Drug Combination Effects. For determination of CI values, drugs were diluted in a fixed ratio and multiple ratios were analyzed. The drug serial dilutions spanned a range of concentrations near the EC50 value of each compound, so that equivalent antiviral activities could be compared. Concentration-response curves were estimated for each individual drug and every combination using the median-effect equation. The equation was fit using a nonlinear regression routine (Proc Nlin) in PC SAS version 8.01 (SAS Institute Inc., SAS Version 8.01, Cary, N.C.: SAS Institute Inc., 1990).
(§3) In this equation, Fa stands for “fraction affected,” and represents the fraction of the viral load that has been inactivated.
To assess antiviral effects of different drug combination treatments, combination indices (CIs) were calculated according to Chou and Rideout. The combination index was computed as CI=[D]1/[Dm]1+[D]2/[Dm]2
In this equation [Dm]1 and [Dm]2 are the concentrations of drugs that would individually produce a specific level of effect, while [D]1 and [D]2 are the concentrations of drugs in combination that would produce the same level of effect.
Theoretically, additivity is implied if the CI is equal to one, synergy if the CI is less than one, and antagonism if the CI is greater than one. […] At best, we can construct a range that contains the likely values for the CI, given the noise in the data. In this report, these ranges are reported in parentheses next to each point estimate of the CI. […] If the range fell entirely above 1.0, we would infer antagonistic behavior. If the range were to include 1.0, we would infer additivity.

[2] = test system: HIV-1 NL4-3; assay: microbe, parasite or virus in culture
Protocol: as §1, §2, §3
In carrying out the combination experiments below, the EC50 for Compound 1 and each comparator compound was determined during the course of each study, and used in the subsequent data analysis.

[3] = combination with Compound 1, EC50 ratio 1:1 (Compound 1:comparator)
[4] = combination with Compound 1, EC50 ratio 1:2.5 (Compound 1:comparator)
[5] = combination with Compound 1, EC50 ratio 2.5:1 (Compound 1:comparator)
[6] = Human immunodeficiency virus 1, NL43, MT2, 120 h

SMILES	Combination Indices at 50% HIV Inhibition (Confidence Interval) [1, 3]	Combination Indices at 75% HIV Inhibition (Confidence Interval) [1, 3]	Combination Indices at 90% HIV Inhibition (Confidence Interval) [1, 3]	Combination Indices at 50% HIV Inhibition (Confidence Interval) [1, 4]	Combination Indices at 75% HIV Inhibition (Confidence Interval) [1, 4]	Combination Indices at 90% HIV Inhibition (Confidence Interval) [1, 4]	Combination Indices at 50% HIV Inhibition (Confidence Interval) [1, 5]	Combination Indices at 75% HIV Inhibition (Confidence Interval) [1, 5]	Combination Indices at 90% HIV Inhibition (Confidence Interval) [1, 5]	Overall Result [1]	EC50 [2, 6] [nM]	other results
CC(C)(C)NC(=O)[C@@H]1CN(Cc2cccnc2)CCN1C[C@@H](O)C[C@@H](Cc1ccccc1)C(=O)N[C@H]1c2ccccc2C[C@H]1O [Indinavir, indinavir]	0.64 (0.42, 0.85)	1.17 (0.63, 1.71)	2.15 (0.53, 3.78)	0.92 (0.68, 1.16)	1.07 (0.68, 1.46)	1.24 (0.51, 1.97)	0.41 (0.29, 0.53)	0.70 (0.42, 0.97)	1.19 (0.40, 1.97)	Additive-	6	Overall Result ([1]; listed as indinavir): additive to synergistic
Nc1ccn([C@@H]2CS[C@H](CO)O2)c(=O)n1 [Lamivudine, lamivudine]	0.69 (0.58, 0.81)	0.49 (0.38, 0.61)	0.37 (0.25, 0.50)	0.58 (0.52, 0.65)	0.60 (0.51, 0.69)	0.64 (0.49, 0.80)	0.93 (0.65, 1.20)	0.78 (0.46, 1.10)	0.70 (0.24, 1.16)		190	
Cc1cccc(C)c1OCC(=O)N[C@@H](Cc1ccccc1)[C@@H](O)C[C@H](Cc1ccccc1)NC(=O)[C@H](C(C)C)N1CCCNC1=O [Lopinavir, lopinavir]	0.16 (0.11, 0.22)	0.16 (0.08, 0.24)	0.16 (0.04, 0.28)		0.57 (0.46 0.68)	0.32 (0.22, 0.42)	1.60 (1.28, 1.92)	0.78 (0.56, 1.00)	0.38 (0.22, 0.55)	Additive-	14	Overall Result ([1]; listed as lopinavir): additive to synergistic
Cc1c(O)cccc1C(=O)N[C@@H](CSc1ccccc1)[C@H](O)CN1C[C@H]2CCCC[C@H]2C[C@H]1C(=O)NC(C)(C)C [Nelfinavir, nelfinavir]	0.55 (0.45, 0.65)	0.57 (0.42, 0.71)	0.59 (0.35, 0.83)	0.41 (0.34, 0.49)	0.50 (0.38, 0.63)	0.62 (0.36, 0.87)	0.82 (0.65, 0.99)	0.84 (0.60, 1.08)	0.87 (0.47, 1.27)	Moderately	8	combination effect at the 5:1 and 2:1 molar ratios ([1]; combination with Compound 1, all effective levels): synergy; combination effect at the 12.5:1 molar ratio ([1]; combination with Compound 1, only at the 75% and 90% effective levels): bias toward additivity; Overall Result ([1]; listed as nelfinavir): moderately synergistic
Cc1ccnc2c1NC(=O)c1cccnc1N2C1CC1 [Nevirapine, nevirapine]	0.51 (0.39, 0.63)	0.30 (0.20, 0.40)	0.18 (0.08, 0.27)	0.63 (0.42, 0.83)	0.40 (0.22, 0.59)	0.26 (0.07, 0.46)	0.52 (0.39, 0.64)	0.32 (0.22, 0.43)	0.21 (0.10, 0.31)	Synergistic	85	Overall Result ([1]; listed as nevirapine): strong synergistic effects
CC(C)c1nc(CN(C)C(=O)N[C@H](C(=O)N[C@@H](Cc2ccccc2)C[C@H](O)[C@H](Cc2ccccc2)NC(=O)OCc2cncs2)C(C)C)cs1 [Ritonavir, ritonavir]	1.35 (0.72, 1.97)	1.74 (0.61, 2.87)	2.56 (0.00, 5.18)	1.23 (0.73, 1.74)	1.24 (0.53, 1.96)	1.39 (0.13, 2.65)	1.37 (0.95, 1.80)	1.18 (0.67, 1.68)	1.13 (0.37, 1.88)	Additive	24	
CC(C)(C)NC(=O)[C@@H]1C[C@@H]2CCCC[C@@H]2CN1C[C@@H](O)[C@H](Cc1ccccc1)NC(=O)[C@H](CC(N)=O)NC(=O)c1ccc2ccccc2n1 [Saquinavir, saquinavir]	0.65 (0.49, 0.80)	0.85 (0.56, 1.14)	1.20 (0.55, 1.84)	0.55 (0.42, 0.68)	0.97 (0.65, 1.29)	1.81 (0.86, 2.77)	0.47 (0.38, 0.56)	0.60 (0.44, 0.75)		Additive-	11	Overall Result ([1]; listed as saquinavir): additive to synergistic
Cc1cn([C@H]2C=C[C@@H](CO)O2)c(=O)[nH]c1=O [Stavudine, stavudine]	0.63 (0.42, 0.85)	0.51 (0.29, 0.74)	0.43 (0.10, 0.75)	1.32 (0.94, 1.69)	0.68 (0.41, 0.94)	0.36 (0.12, 0.59)	1.20 (0.88, 1.51)	0.71 (0.45, 0.96)	0.43 (0.17, 0.68)	Additive-	55	combination effect at the 50% effective level ([1]; combination with Compound 1): additivity; combination effect at the 75% and 90% effective levels ([1]; combination with Compound 1): synergy; Overall Result ([1]; listed as stavudine): additive-synergistic
C[C@H](Cn1cnc2c(N)ncnc21)OCP(=O)(O)O [Tenofovir, tenofovir]	1.30 (1.00, 1.61)	1.02 (0.69, 1.35)	0.80 (0.39, 1.21)	0.93 (0.63, 1.23)	0.99 (0.54, 1.43)	1.06 (0.31, 1.80)	1.03 (0.65, 1.40)	0.84 (0.42, 1.27)	0.70 (0.14, 1.25)	Additive		EC50 ([2]; MT-2 cells infected with HIV-1 NL4-3, MOI 0.001, 5 days, single drug): 3 nM
